Here are results for 13 compounds from PubChem BioAssay AID212 (DTP/NCI, 2004).

Values joined by “and” are separate entries in the source; they are usually repeats but may differ in a detail not shown here. Equal values may be shown once. Inconclusive results are not listed.

In the assay the test system is BDF1 mice, colon carcinoma 38 sc, T/C %. Description: NCI In Vivo Anticancer Drug Screen. Data for tumor model Colon Carcinoma 38 (subcutaneous) in B6D2F1 (BDF1) mice. The gist of the method:
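Compound antitumor activity was assessed in mice carrying transplantable tumors. Survival or tumor size was recorded, and each value is the treated-group measurement divided by that of the vehicle-treated control group.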

Setting [1] is: endpoint: median tumor weight (est.), dose: 12.5 mg/kg/injection, schedule: Q07DX002 (ip), vehicle: saline, higher = larger tumour.
[2] abbreviates: endpoint: median tumor weight (est.), dose: 25.0 mg/kg/injection, schedule: Q07DX002 (ip), vehicle: saline, higher = larger tumour.
The mark [3] stands for this setting: endpoint: median tumor weight (est.), dose: 50.0 mg/kg/injection, schedule: Q07DX002 (ip), vehicle: saline, higher = larger tumour.
The mark [4] stands for this setting: endpoint: median tumor weight (est.), dose: 100.0 mg/kg/injection, schedule: Q07DX002 (ip), vehicle: saline, higher = larger tumour.
[5] abbreviates: endpoint: median tumor weight (est.), dose: 100.0 mg/kg/injection, schedule: Q07DX002 (ip), vehicle: suspension in saline, higher = larger tumour.
Setting [6] is: endpoint: median tumor weight (est.), dose: 400.0 mg/kg/injection, schedule: Q07DX002 (ip), vehicle: suspension in saline, higher = larger tumour.
[7] abbreviates: endpoint: median tumor weight (est.), dose: 800.0 mg/kg/injection, schedule: Q07DX002 (ip), vehicle: suspension in saline, higher = larger tumour.
Setting [8] is: endpoint: median tumor weight (est.), dose: 200.0 mg/kg/injection, schedule: Q07DX002 (ip), vehicle: saline, higher = larger tumour.
The mark [9] stands for this setting: endpoint: median tumor weight (est.), dose: 400.0 mg/kg/injection, schedule: Q07DX002 (ip), vehicle: saline, higher = larger tumour.
Where [10] appears, read: endpoint: median tumor weight (est.), dose: 12.5 mg/kg/injection, schedule: Q07DX002 (ip), vehicle: saline with Tween-80, higher = larger tumour.
Where [11] appears, read: endpoint: median tumor weight (est.), dose: 25.0 mg/kg/injection, schedule: Q07DX002 (ip), vehicle: saline with Tween-80, higher = larger tumour.
Setting [12] is: endpoint: median tumor weight (est.), dose: 50.0 mg/kg/injection, schedule: Q07DX002 (ip), vehicle: saline with Tween-80, higher = larger tumour.
The mark [13] stands for this setting: endpoint: median tumor weight (est.), dose: 200.0 mg/kg/injection, schedule: Q07DX002 (ip), vehicle: saline with Tween-80, higher = larger tumour.
Setting [14] is: endpoint: median tumor weight (est.), dose: 100.0 mg/kg/injection, schedule: Q07DX002 (ip), vehicle: saline with Tween-80, higher = larger tumour.
Where [15] appears, read: endpoint: median tumor weight (est.), dose: 400.0 mg/kg/injection, schedule: Q07DX002 (ip), vehicle: saline with Tween-80, higher = larger tumour.
Setting [16] is: endpoint: median tumor weight (est.), dose: 50.0 mg/kg/injection, schedule: Q07DX002 (ip), vehicle: Klucel (hydroxypropylcellulose) (HPC), higher = larger tumour.
Setting [17] is: endpoint: median tumor weight (est.), dose: 100.0 mg/kg/injection, schedule: Q07DX002 (ip), vehicle: Klucel (hydroxypropylcellulose) (HPC), higher = larger tumour.

Take `Cc1c2cc[n+](C)cc2c(C)c2c1[nH]c1ccc(O)cc12`: the T/C is, setting by setting: (endpoint: median tumor weight (est.), dose: 0.12 mg/kg/injection, schedule: Q07DX002 (ip), vehicle: water, higher = larger tumour) 119 % of control; (endpoint: median tumor weight (est.), dose: 0.25 mg/kg/injection, schedule: Q07DX002 (ip), vehicle: water, higher = larger tumour) 62 % of control; (endpoint: median tumor weight (est.), dose: 0.5 mg/kg/injection, schedule: Q07DX002 (ip), vehicle: water, higher = larger tumour) 69 % of control; (endpoint: median tumor weight (est.), dose: 0.63 mg/kg/injection, schedule: Q07DX002 (ip), vehicle: water, higher = larger tumour) 67 % of control; (endpoint: median tumor weight (est.), dose: 1.0 mg/kg/injection, schedule: Q07DX002 (ip), vehicle: water, higher = larger tumour) 123 % of control; (endpoint: median tumor weight (est.), dose: 1.25 mg/kg/injection, schedule: Q07DX002 (ip), vehicle: water, higher = larger tumour) 52 % of control. Also, the T/C (endpoint: median tumor weight (est.), dose: 1.5 mg/kg/injection, schedule: Q07DX002 (ip), vehicle: water, higher = larger tumour) is 116 % of control; the T/C (endpoint: median tumor weight (est.), dose: 2.5 mg/kg/injection, schedule: Q07DX002 (ip), vehicle: water, higher = larger tumour) is 72 % of control; the T/C (endpoint: median tumor weight (est.), dose: 3.0 mg/kg/injection, schedule: Q07DX002 (ip), vehicle: water, higher = larger tumour) was 122 % of control; the T/C (endpoint: median tumor weight (est.), dose: 4.0 mg/kg/injection, schedule: Q07DX002 (ip), vehicle: water, higher = larger tumour) is 70 % of control; the T/C (endpoint: median tumor weight (est.), dose: 5.0 mg/kg/injection, schedule: Q07DX002 (ip), vehicle: water, higher = larger tumour) is 71 % of control.
For the compound `NC(=O)c1[nH]nc(C2OC(CO)C(O)C2O)c1O` (configuration not stated), the T/C was 77 % of control and 79 % of control (endpoint: median survival time, dose: 0.75 mg/kg/injection, schedule: Q04DX004 (ip), vehicle: saline, higher = longer survival); 90 % of control and 105 % of control (endpoint: median survival time, dose: 1.5 mg/kg/injection, schedule: Q04DX004 (ip), vehicle: saline, higher = longer survival); 63 % of control and 65 % of control (endpoint: median survival time, dose: 3.0 mg/kg/injection, schedule: Q04DX004 (ip), vehicle: saline, higher = longer survival); 59 % of control (endpoint: median survival time, dose: 6.0 mg/kg/injection, schedule: Q04DX004 (ip), vehicle: saline, higher = longer survival); 43 % of control (endpoint: median survival time, dose: 12.0 mg/kg/injection, schedule: Q04DX004 (ip), vehicle: saline, higher = longer survival); 117 % of control (endpoint: median tumor weight (est.), dose: 0.31 mg/kg/injection, schedule: Q07DX003 (ip), vehicle: saline, higher = larger tumour). In addition, the T/C is, setting by setting: (endpoint: median tumor weight (est.), dose: 0.62 mg/kg/injection, schedule: Q07DX003 (ip), vehicle: saline, higher = larger tumour) 90 % of control; (endpoint: median tumor weight (est.), dose: 1.25 mg/kg/injection, schedule: Q07DX003 (ip), vehicle: saline, higher = larger tumour) 97 % of control; (endpoint: median tumor weight (est.), dose: 4.32 mg/kg/injection, schedule: Q04DX004 (ip), vehicle: saline, higher = larger tumour) 81 % of control; (endpoint: median tumor weight (est.), dose: 5.0 mg/kg/injection, schedule: Q07DX002 (ip), vehicle: saline, higher = larger tumour) 100 % of control; (endpoint: median tumor weight (est.), dose: 5.0 mg/kg/injection, schedule: Q07DX003 (ip), vehicle: saline, higher = larger tumour) 93 % of control; (endpoint: median tumor weight (est.), dose: 7.2 mg/kg/injection, schedule: Q04DX004 (ip), vehicle: saline, higher = larger tumour) 61 % of control. Besides, the T/C is 86 % of control (endpoint: median tumor weight (est.), dose: 10.0 mg/kg/injection, schedule: Q07DX002 (ip), vehicle: saline, higher = larger tumour); 82 % of control (endpoint: median tumor weight (est.), dose: 10.0 mg/kg/injection, schedule: Q07DX003 (ip), vehicle: saline, higher = larger tumour); 17 % of control (endpoint: median tumor weight (est.), dose: 12.0 mg/kg/injection, schedule: Q04DX004 (ip), vehicle: saline, higher = larger tumour).
With `CC1(C)COCN1COCCOCN1COCC1(C)C`, the T/C by setting is: under setting [1], 87 % of control; under setting [2], 109 % of control and 112 % of control; under setting [3], 80 % of control and 95 % of control; under setting [4], 81 % of control and 88 % of control.
Consider `Nc1n[n+](-c2ccc(Cl)cc2)no1`, for which the T/C is 64 % of control and 78 % of control (endpoint: median tumor weight (est.), dose: 6.25 mg/kg/injection, schedule: Q07DX002 (ip), vehicle: water, higher = larger tumour); 85 % of control and 87 % of control (endpoint: median tumor weight (est.), dose: 12.5 mg/kg/injection, schedule: Q07DX002 (ip), vehicle: water, higher = larger tumour); 57 % of control (endpoint: median tumor weight (est.), dose: 25.0 mg/kg/injection, schedule: Q07DX002 (ip), vehicle: water, higher = larger tumour); 119 % of control (endpoint: median tumor weight (est.), dose: 50.0 mg/kg/injection, schedule: Q07DX002 (ip), vehicle: water, higher = larger tumour).
For `Nc1nc2c(ncn2C2OC(CO)C(O)C2O)c(=O)[nH]1` (configuration not stated), the T/C is, setting by setting: under setting [5], 100 % of control; (endpoint: median tumor weight (est.), dose: 200.0 mg/kg/injection, schedule: Q07DX002 (ip), vehicle: suspension in saline, higher = larger tumour) 117 % of control; under setting [6], 94 % of control; under setting [7], 105 % of control; (endpoint: median tumor weight (est.), dose: 1600.0 mg/kg/injection, schedule: Q07DX002 (ip), vehicle: suspension in saline, higher = larger tumour) 90 % of control.
Consider `NC(=S)N/N=C/c1ccc(O)cn1`, for which the T/C was 123 % of control under setting [2]; 83 % of control (endpoint: median tumor weight (est.), dose: 25.0 mg/kg/injection, schedule: Q07DX002 (ip), vehicle: suspension in saline, higher = larger tumour); 67 % of control under setting [3]; 72 % of control (endpoint: median tumor weight (est.), dose: 50.0 mg/kg/injection, schedule: Q07DX002 (ip), vehicle: suspension in saline, higher = larger tumour); 67 % of control under setting [4]; 108 % of control under setting [5]. Moreover, the T/C by setting is: under setting [8], 72 % of control; under setting [9], 71 % of control; under setting [6], 105 % of control; (endpoint: median tumor weight (est.), dose: 800.0 mg/kg/injection, schedule: Q07DX002 (ip), vehicle: saline, higher = larger tumour) 67 % of control; under setting [7], 110 % of control.
`CCOC(=O)C(N)CSC(=O)NC` (configuration not stated): the T/C (endpoint: median tumor weight (est.), dose: 125.0 mg/kg/injection, schedule: Q07DX002 (ip), vehicle: saline, higher = larger tumour) is 83 % of control; the T/C (endpoint: median tumor weight (est.), dose: 250.0 mg/kg/injection, schedule: Q07DX002 (ip), vehicle: saline, higher = larger tumour) is 110 % of control; the T/C (endpoint: median tumor weight (est.), dose: 500.0 mg/kg/injection, schedule: Q07DX002 (ip), vehicle: saline, higher = larger tumour) was 81 % of control.
Turning to `CCCCc1ccc2nc(NC(=O)OC)[nH]c2c1`, the T/C is 114 % of control under setting [10], 83 % of control under setting [11], 98 % of control under setting [12] and 87 % of control under setting [13].
On to `CCCCCCCCCCCCCCCCCCCCCC(=O)Nc1ccn(C2OC(CO)C(O)C2O)c(=O)n1` (configuration not stated), for which the T/C is 80 % of control under setting [1]; 151 % of control under setting [11]; 119 % of control and 105 % of control under setting [2]; 172 % of control under setting [12]; 82 % of control under setting [14]; 52 % of control and 65 % of control under setting [4]. Moreover, the T/C runs as follows: under setting [13], 92 % of control; under setting [8], 52 % of control; under setting [15], 10 % of control; under setting [9], 29 % of control.
For the compound `O=C(NC1CCCCC1)OCc1c(COC(=O)NC2CCCCC2)c(-c2ccc(Cl)c(Cl)c2)n2c1CCC2`, the T/C under setting [10] was 111 % of control; the T/C under setting [11] was 85 % of control; the T/C under setting [12] was 76 % of control; the T/C under setting [14] is 95 % of control; the T/C under setting [13] is 86 % of control; the T/C under setting [15] was 80 % of control.
On to `CCOC(=O)/N=[N+](\[O-])c1ccccc1`, for which the T/C is 49 % of control (endpoint: median tumor weight (est.), dose: 6.25 mg/kg/injection, schedule: Q07DX002 (ip), vehicle: saline with Tween-80, higher = larger tumour) and 71 % of control under setting [10].
For the compound `O=C(Nc1ccc(N=C=S)cc1Cl)c1cc(Cl)cc(Cl)c1O`, the T/C reads like this: (endpoint: median tumor weight (est.), dose: 12.5 mg/kg/injection, schedule: Q07DX002 (ip), vehicle: Klucel (hydroxypropylcellulose) (HPC), higher = larger tumour) 64 % of control and 65 % of control; under setting [16], 80 % of control and 87 % of control; under setting [17], 79 % of control.
For the compound `Cn1c(N)c(C(=O)/C=C/c2ccccc2)c(=O)n(C)c1=O`, the T/C was 114 % of control (endpoint: median tumor weight (est.), dose: 25.0 mg/kg/injection, schedule: Q07DX002 (ip), vehicle: Klucel (hydroxypropylcellulose) (HPC), higher = larger tumour); 112 % of control under setting [16]; 109 % of control under setting [17]; 123 % of control (endpoint: median tumor weight (est.), dose: 400.0 mg/kg/injection, schedule: Q07DX002 (ip), vehicle: Klucel (hydroxypropylcellulose) (HPC), higher = larger tumour).
